Here are results for ten compounds from patent US20220370440A1 (Lead Discovery Center GmbH, priority 2018, published 2022).

The target in data set [1] is EGFR Exon 20 INSNPH Ba/F3 (Homo sapiens, UniProt P00533, DUP771-773, cells depend on it). The data set is described as follows: EGFR Exon 20 INSNPH Ba/F3 CellTiter-Glo. The format is cell-based. The following applies: CellTiter-Glo, 72 h, read-out: EGFR Exon 20 INSNPH Ba/F3 CTG IC50. Put shortly: (§1)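 Ba/F3 cells were seeded, left 24 h at 37 °C/5% CO2, then exposed to compound dilutions in DMSO for 72 h. Viability was read as ATP luminescence (CellTiter-Glo) and IC50 fitted from dose–response curves; DMSO and 10 μM staurosporine defined the controls, and plates needed Z′ ≥0.5.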
A general note: In ATP-based viability assays light output follows the ATP content of the culture.

In a further data set the test system is A431. The data set is described as follows: A431 CellTiter-Glo. It counts as cell-based. To be noted: Homo sapiens, A-431; 72 h compound incubation; read-out: A431 CTG IC50. Put shortly: (§2)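 Luminescence from cellular ATP serves as the viability signal after cells are treated with compound dilutions for 72 h at 37° C. IC50 is derived by curve fitting, with DMSO-treated and 10 μM Staurosporine-treated wells defining the assay window.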

The next data set deals with H1781. The data set can be described thus: H1781 CellTiter-Glo. To be noted: NCI-H1781; 72 h compound incubation; read-out: H1781 CTG IC50. It counts as cell-based. Here is the method:
2. Measurement of Cellular Activity
The CellTiter-Glo Luminescent Cell Viability Assay (Promega) is a homogeneous method of determining the number of viable cells in culture. It is based on quantification of ATP, indicating the presence of metabolically active cells. Cells are seeded on day 1 at cell numbers that assure assay linearity and optimal signal intensity. After incubation for 24 h in humidified chambers at 37° C. and 5% CO2, compounds in DMSO are added at different concentrations. Cells are further incubated for 72 h at 37° C. and 5% CO2. Cells treated with the compound vehicle DMSO are used as positive controls and cells treated with 10 μM Staurosporine serve as negative controls. At day 5 the CellTiter Glo Reagent is prepared according to the instructions of the kit (Promega Inc.): Reagent is mixed 1:1 with cell culture medium. Thereon, mixture and assay plates are equilibrated at room temperature for 20 min. Equal volumes of the reagent-medium-mixture is added to the volume of culture medium present in each well. The plates are mixed at ˜200 rpm for 2 minutes on an orbital shaker. The microplates are then incubated at room temperature for 10 minutes for stabilization of the luminescent signal. Following incubation the luminescence is recorded on a Victor microplate reader (Perkin Elmer) using a 200 ms integration time. The data is then analyzed with Excel using the XLFIT Plugin (dose response Fit 205) for IC50-determination. As quality control the Z′-factor is calculated from 16 positive and negative control values. Only assay results showing a Z′-factor ≥0.5 are used for further analysis.
(§3) Inhibition is indicated as […] [nM] (“−”=not measured). Compounds having an activity designated as “A” provided an IC50≤100 nM; compounds having an activity designated as “B” provided an 100 nM<IC50≤500 nM; compounds having an activity designated as “C” provided an 500 nM<IC50≤1000 nM; compounds having an activity designated as “D” provided an 1000 nM<IC50≤100000 nM; and compounds having an activity designated as “E” provided an IC50>10000 nM.

Another data set deals with H1975. The data set is described as follows: H1975 CellTiter-Glo. It counts as cell-based. To be noted: Homo sapiens, NCI-H1975; 72 h compound incubation; read-out: H1975 CTG IC50. In a few lines:
as §2

The target in data set [2] is Her2 Exon 20 INSYVMA Ba/F3 (Homo sapiens, UniProt P04626, DUP772-775, cells depend on it). The data set can be described thus: Her2 Exon 20 INSYVMA Ba/F3 CellTiter-Glo. It counts as cell-based. The following applies: CellTiter-Glo, 72 h, read-out: Her2 Exon 20 INSYVMA Ba/F3 CTG IC50. In a few lines:
as §1

The next data set concerns the target T1, HER2 INS YVMA (Homo sapiens, UniProt P04626, INS775YVMA).
T1 construct: purchased DPF
The data set can be described thus: Lance Kinase Activity Assay, HER2 INS YVMA (Her2 Exon 20 INSYVMA Lance). It counts as biochemical. The following applies: biochemical Lance assay. Put shortly:
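Kinase phosphorylates a ULight-labelled peptide substrate; Eu anti-phospho antibody gives TR-FRET (ex 340 nm, em 665/615 nm). Compounds in 1:3 serial dilution over 8 steps, reaction started with ATP, 1 h at room temperature, stopped with EDTA-containing detection mix for 1 h. IC50 from sigmoidal dose-response curves.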

A further data set addresses EGFR T790ML858R (Homo sapiens, UniProt P00533, L858R/T790M). The data set can be described thus: EGFR T790ML858R Lance assay. The format is biochemical. As to the method:
as §3

In a further data set the target is EGFR wt (Homo sapiens, UniProt P00533). The data set can be described thus: EGFR wt Lance assay. The format is biochemical. As to the method:
as §3

The nature of data set [3]: Metabolic stability in mouse liver microsomes without cofactor NADPH. It counts as in vitro ADME. To be noted: 3 μM test compound, mouse liver microsomes, without NADPH, 50 min, 37° C., LC-MS/MS. In a few lines: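 Test compound (3 μM) was incubated with mouse liver microsomes without NADPH at 37° C. Depletion was followed by LC-MS/MS over time up to 50 min.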
(Liver microsomes are vesicles of endoplasmic reticulum, rich in cytochrome P450 enzymes.)

T1 sequence (P04626 with tags, fused parts or gaps INS775YVMA): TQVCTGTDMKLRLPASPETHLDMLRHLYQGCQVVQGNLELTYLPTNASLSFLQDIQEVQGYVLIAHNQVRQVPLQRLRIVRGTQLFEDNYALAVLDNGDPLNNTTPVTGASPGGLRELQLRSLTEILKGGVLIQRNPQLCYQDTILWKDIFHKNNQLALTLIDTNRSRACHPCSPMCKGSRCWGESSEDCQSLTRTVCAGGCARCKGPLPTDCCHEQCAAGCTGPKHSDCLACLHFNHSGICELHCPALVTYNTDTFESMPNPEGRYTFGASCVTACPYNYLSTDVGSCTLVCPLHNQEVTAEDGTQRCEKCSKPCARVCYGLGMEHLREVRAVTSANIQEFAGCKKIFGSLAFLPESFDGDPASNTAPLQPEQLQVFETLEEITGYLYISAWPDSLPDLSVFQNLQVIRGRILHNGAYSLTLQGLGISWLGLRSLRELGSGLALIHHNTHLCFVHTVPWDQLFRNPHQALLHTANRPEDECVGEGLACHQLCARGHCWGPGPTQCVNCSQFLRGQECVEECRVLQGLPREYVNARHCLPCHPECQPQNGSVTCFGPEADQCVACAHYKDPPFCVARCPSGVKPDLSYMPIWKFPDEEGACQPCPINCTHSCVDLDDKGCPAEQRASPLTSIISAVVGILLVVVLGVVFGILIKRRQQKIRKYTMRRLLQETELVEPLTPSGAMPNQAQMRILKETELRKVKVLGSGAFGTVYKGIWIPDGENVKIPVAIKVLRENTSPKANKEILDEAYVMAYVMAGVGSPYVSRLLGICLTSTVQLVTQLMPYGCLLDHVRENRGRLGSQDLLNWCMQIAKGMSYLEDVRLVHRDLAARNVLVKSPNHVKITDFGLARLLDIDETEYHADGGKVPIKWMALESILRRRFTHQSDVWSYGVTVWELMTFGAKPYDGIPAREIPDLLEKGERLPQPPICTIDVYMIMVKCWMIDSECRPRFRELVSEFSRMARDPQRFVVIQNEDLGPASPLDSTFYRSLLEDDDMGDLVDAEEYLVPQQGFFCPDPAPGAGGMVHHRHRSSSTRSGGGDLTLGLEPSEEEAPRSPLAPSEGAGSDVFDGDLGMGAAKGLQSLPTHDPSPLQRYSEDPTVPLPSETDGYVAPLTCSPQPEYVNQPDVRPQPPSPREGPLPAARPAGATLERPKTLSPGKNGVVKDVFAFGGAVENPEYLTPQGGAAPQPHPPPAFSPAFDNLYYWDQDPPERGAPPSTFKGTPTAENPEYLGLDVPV
Her2 Exon 20 INSYVMA Ba/F3, sequence (P04626 with tags, fused parts or gaps DUP772-775): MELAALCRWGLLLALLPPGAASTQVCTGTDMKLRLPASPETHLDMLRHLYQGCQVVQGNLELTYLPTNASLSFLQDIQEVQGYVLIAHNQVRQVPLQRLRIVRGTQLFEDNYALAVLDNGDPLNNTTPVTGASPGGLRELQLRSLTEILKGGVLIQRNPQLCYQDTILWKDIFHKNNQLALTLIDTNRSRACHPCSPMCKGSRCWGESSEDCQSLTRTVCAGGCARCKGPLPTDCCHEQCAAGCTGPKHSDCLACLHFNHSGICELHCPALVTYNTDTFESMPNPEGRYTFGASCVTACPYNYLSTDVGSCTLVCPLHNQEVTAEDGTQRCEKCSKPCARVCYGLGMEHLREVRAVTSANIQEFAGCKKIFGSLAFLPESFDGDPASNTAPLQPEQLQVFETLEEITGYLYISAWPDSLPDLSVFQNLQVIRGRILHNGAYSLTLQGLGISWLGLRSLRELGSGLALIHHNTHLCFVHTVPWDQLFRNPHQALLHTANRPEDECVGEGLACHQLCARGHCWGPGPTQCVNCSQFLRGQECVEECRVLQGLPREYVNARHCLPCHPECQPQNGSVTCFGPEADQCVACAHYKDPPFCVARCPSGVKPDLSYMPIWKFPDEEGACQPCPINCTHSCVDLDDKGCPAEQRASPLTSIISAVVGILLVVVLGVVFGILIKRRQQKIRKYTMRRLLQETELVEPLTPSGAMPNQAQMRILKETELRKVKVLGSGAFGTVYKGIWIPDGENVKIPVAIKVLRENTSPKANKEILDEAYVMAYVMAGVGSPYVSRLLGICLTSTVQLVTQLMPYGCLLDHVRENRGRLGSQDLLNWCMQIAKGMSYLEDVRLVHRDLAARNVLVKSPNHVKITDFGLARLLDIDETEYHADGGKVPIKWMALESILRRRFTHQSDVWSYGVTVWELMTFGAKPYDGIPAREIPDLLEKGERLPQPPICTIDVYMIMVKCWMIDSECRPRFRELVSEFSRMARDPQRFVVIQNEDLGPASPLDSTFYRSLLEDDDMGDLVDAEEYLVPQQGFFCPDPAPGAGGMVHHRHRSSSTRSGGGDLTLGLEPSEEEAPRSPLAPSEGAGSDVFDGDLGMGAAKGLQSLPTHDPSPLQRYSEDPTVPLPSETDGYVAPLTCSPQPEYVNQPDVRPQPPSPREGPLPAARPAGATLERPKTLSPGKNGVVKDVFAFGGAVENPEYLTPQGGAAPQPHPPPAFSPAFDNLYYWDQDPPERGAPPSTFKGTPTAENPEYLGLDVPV
EGFR T790ML858R, sequence (P00533 25-1210 T790M/L858R): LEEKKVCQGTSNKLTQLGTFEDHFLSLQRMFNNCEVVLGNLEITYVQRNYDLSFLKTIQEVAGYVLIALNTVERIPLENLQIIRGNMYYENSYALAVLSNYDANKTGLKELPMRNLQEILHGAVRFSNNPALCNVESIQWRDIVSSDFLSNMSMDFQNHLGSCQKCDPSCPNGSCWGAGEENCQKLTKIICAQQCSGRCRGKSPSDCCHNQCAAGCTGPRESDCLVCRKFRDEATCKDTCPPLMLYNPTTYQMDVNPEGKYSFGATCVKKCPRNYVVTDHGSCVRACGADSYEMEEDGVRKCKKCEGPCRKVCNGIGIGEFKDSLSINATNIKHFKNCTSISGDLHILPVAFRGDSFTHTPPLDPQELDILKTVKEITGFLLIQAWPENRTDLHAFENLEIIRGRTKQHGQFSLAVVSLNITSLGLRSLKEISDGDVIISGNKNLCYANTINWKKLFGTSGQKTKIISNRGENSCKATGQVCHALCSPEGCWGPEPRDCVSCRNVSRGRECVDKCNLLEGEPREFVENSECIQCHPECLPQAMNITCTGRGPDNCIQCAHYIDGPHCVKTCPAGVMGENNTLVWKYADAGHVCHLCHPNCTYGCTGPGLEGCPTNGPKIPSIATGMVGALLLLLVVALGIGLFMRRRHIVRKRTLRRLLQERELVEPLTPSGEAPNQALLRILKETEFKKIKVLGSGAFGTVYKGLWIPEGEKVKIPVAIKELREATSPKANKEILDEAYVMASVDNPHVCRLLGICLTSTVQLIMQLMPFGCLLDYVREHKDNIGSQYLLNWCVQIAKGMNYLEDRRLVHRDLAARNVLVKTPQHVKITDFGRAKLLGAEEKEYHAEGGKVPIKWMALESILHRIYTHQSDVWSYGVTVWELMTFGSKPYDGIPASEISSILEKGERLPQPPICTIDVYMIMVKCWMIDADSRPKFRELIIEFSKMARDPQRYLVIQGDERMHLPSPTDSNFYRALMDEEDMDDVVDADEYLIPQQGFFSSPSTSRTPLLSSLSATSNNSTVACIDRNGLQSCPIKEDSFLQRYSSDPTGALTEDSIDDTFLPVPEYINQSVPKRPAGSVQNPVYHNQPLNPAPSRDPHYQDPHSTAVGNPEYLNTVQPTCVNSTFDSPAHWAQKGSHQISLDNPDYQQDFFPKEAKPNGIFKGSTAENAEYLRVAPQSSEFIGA
EGFR wt, sequence (P00533 25-1210): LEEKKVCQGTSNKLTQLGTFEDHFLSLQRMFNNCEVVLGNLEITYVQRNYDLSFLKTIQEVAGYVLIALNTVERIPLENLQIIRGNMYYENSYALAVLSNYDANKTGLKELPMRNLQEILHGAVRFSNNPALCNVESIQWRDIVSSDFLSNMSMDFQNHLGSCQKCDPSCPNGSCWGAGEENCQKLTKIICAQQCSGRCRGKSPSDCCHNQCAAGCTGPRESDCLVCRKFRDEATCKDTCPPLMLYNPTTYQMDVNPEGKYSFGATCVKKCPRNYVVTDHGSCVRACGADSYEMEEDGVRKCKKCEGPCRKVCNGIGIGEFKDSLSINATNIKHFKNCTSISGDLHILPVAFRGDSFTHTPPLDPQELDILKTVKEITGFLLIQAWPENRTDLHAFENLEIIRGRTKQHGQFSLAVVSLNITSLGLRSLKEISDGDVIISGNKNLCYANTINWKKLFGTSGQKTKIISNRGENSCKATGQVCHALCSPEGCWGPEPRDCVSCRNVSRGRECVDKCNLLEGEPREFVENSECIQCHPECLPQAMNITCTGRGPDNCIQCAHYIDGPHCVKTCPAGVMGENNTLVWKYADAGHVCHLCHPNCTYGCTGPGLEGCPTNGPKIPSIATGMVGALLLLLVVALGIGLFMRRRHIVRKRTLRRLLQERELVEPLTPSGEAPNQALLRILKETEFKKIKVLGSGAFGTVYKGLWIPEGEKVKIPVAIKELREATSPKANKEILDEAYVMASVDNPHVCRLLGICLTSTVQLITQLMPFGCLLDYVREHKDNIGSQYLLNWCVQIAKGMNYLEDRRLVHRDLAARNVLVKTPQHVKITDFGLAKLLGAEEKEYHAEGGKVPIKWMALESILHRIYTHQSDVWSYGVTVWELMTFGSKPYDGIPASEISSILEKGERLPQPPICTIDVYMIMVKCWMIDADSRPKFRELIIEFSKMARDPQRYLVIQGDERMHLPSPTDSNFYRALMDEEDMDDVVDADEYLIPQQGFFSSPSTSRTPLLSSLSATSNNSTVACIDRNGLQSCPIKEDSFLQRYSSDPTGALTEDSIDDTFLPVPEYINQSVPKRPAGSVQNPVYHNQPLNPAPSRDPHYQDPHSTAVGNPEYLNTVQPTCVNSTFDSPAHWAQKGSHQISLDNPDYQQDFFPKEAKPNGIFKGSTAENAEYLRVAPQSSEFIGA

By IC50 is commonly meant the point on the concentration scale where inhibition reaches its midpoint. With `C=CC(=O)N1CCc2ccc(-c3c(-c4ccc(C5CCN(C)CC5)cc4)[nH]c4nccc(Cl)c34)cc21` [Example 55, 1-(6-(4-Chloro-2-(4-(1-methylpiperidin-4-yl)phenyl)-1H-pyrrolo[2,3-b]pyridin-3-yl)indolin-1-yl)prop-2-en-1-one 2,2,2-trifluoroacetate], the GI50 in [1] and in data set [2] was 500 to 1000 nM throughout. Further, the IC50 is 1000 to 100000 nM in the data set with A431; 1000 to 100000 nM in the data set with H1781; not above 100 nM in the data set with H1975; not above 100 nM at HER2 INS YVMA; not above 100 nM at EGFR T790ML858R; not above 100 nM against EGFR wt. Besides, the “Stability in presence of mouse liver microsomes without cofactor NADPH [% remaining after 50 min]” value in data set [3] is listed as more than 99 % remaining after 50 min.
In the case of `C=CC(=O)Nc1cc(-c2c(-c3ccnc(N4CCN(C)CC4)c3)[nH]c3nccc(Cl)c23)ccc1C` [Example 26, N-(5-(4-chloro-2-(2-(4-methylpiperazin-1-yl)pyridin-4-yl)-1H-pyrrolo[2,3-b]pyridin-3-yl)-2-methylphenyl)acrylamide], the GI50 in data set [1] and in [2] was 100 to 500 nM throughout. Moreover, the half-inhibitory concentration (IC50) was 100 to 500 nM in the data set on A431; 500 to 1000 nM in the data set with H1781; not above 100 nM in the data set on H1975; not above 100 nM on HER2 INS YVMA; not above 100 nM against EGFR T790ML858R; not above 100 nM at EGFR wt. For the same compound, the “Stability in presence of mouse liver microsomes without cofactor NADPH [% remaining after 50 min]” value in data set [3] is more than 99 % remaining after 50 min.
Regarding `C=CC(=O)Nc1cc(-c2c(-c3ccc(OCCN(C)C)cc3)[nH]c3nccc(Cl)c23)ccc1C` [Example 18, N-(5-(4-chloro-2-(4-(2-(dimethylamino)ethoxy)phenyl)-1H-pyrrolo[2,3-b]pyridin-3-yl)-2-methylphenyl)acrylamide], the GI50 in [1] was not above 100 nM; in data set [2], 100 to 500 nM. In addition, the IC50 in the data set with A431 is 100 to 500 nM; in the data set with H1781 it was 100 to 500 nM; with H1975, not above 100 nM; at HER2 INS YVMA, not above 100 nM; at EGFR T790ML858R, not above 100 nM; against EGFR wt it was not above 100 nM. The “Stability in presence of mouse liver microsomes without cofactor NADPH [% remaining after 50 min]” value in [3] stood at 90 % remaining after 50 min.
Consider `C=CC(=O)Nc1cc(-c2c(-c3ccc(CCN(C)C)cc3)[nH]c3nccc(Cl)c23)ccc1C` [Example 4, N-(5-(4-chloro-2-(4-(2-(dimethylamino)ethyl)phenyl)-1H-pyrrolo[2,3-b]pyridin-3-yl)-2-methylphenyl)acrylamide], for which the GI50 in data set [1] and in data set [2] was 100 to 500 nM in each case. The IC50 was 100 to 500 nM in the data set with A431; 100 to 500 nM with H1781; not above 100 nM in the data set on H1975; not above 100 nM on HER2 INS YVMA; not above 100 nM at EGFR T790ML858R; not above 100 nM against EGFR wt. Moreover, the “Stability in presence of mouse liver microsomes without cofactor NADPH [% remaining after 50 min]” value in data set [3] is on record as more than 99 % remaining after 50 min.
In the case of `C=CC(=O)Nc1cc(-c2c(-c3ccc(N4CCNCC4)cc3)[nH]c3nccc(Cl)c23)ccc1C` [Example 96, N-(5-(4-chloro-2-(4-(piperazin-1-yl)phenyl)-1H-pyrrolo[2,3-b]pyridin-3-yl)-2-methylphenyl)acrylamide 2,2,2-trifluoroacetate], the GI50 in data set [1] and in [2] was 100 to 500 nM throughout. For the same compound, the 50% inhibitory concentration (IC50) with A431 is 100 to 500 nM; in the data set on H1781, 100 to 500 nM; in the data set on H1975 it was not above 100 nM; against HER2 INS YVMA it was not above 100 nM; on EGFR T790ML858R it was not above 100 nM; at EGFR wt, not above 100 nM. Also, the “Stability in presence of mouse liver microsomes without cofactor NADPH [% remaining after 50 min]” value in data set [3] is recorded as 92 % remaining after 50 min.
Consider `C=CC(=O)Nc1cc(-c2c(-c3ccc(OCCCN4CCN(CC)CC4)cc3)[nH]c3nccc(Cl)c23)ccc1C` [Example 23, N-(5-(4-chloro-2-(4-(3-(4-ethylpiperazin-1-yl)propoxy)phenyl)-1H-pyrrolo[2,3-b]pyridin-3-yl)-2-methylphenyl)acrylamide], for which the GI50 in data set [1] and in [2] was 100 to 500 nM in each case. Further, the IC50 with A431 is 100 to 500 nM; in the data set on H1781 it was 100 to 500 nM; in the data set on H1975 it was not above 100 nM; at HER2 INS YVMA, not above 100 nM; against EGFR T790ML858R, not above 100 nM; at EGFR wt, not above 100 nM. In data set [3], the “Stability in presence of mouse liver microsomes without cofactor NADPH [% remaining after 50 min]” value is reported as more than 99 % remaining after 50 min.
`C=CC(=O)Nc1cc(-c2c(-c3ccc(CN4CCOCC4)cc3)[nH]c3nccc(OC)c23)ccc1C` [Example 75, N-(5-(4-methoxy-2-(4-(morpholinomethyl)phenyl)-1H-pyrrolo[2,3-b]pyridin-3-yl)-2-methylphenyl)acrylamide]: the figures for the GI50 in data set [1] and in data set [2] were not above 100 nM and 100 to 500 nM, respectively. Besides, the IC50 is 100 to 500 nM in the data set on A431; 100 to 500 nM in the data set with H1781; not above 100 nM with H1975; not above 100 nM against HER2 INS YVMA; not above 100 nM on EGFR T790ML858R; not above 100 nM at EGFR wt. The “Stability in presence of mouse liver microsomes without cofactor NADPH [% remaining after 50 min]” value in data set [3] is more than 99 % remaining after 50 min.
Regarding `C=CC(=O)Nc1cc(-c2c(-c3cccc(CN4CCN(C)CC4)c3)[nH]c3nccc(OC)c23)ccc1C` [Example 76, N-(5-(4-methoxy-2-(3-((4-methylpiperazin-1-yl)methyl)phenyl)-1H-pyrrolo[2,3-b]pyridin-3-yl)-2-methylphenyl)acrylamide], the GI50 in data set [1] and in [2] was 100 to 500 nM in each case. The concentration for half-maximal inhibition (IC50) was 500 to 1000 nM in the data set on A431; 500 to 1000 nM in the data set with H1781; not above 100 nM with H1975; not above 100 nM against HER2 INS YVMA; not above 100 nM against EGFR T790ML858R; not above 100 nM at EGFR wt. Moreover, in data set [3], the “Stability in presence of mouse liver microsomes without cofactor NADPH [% remaining after 50 min]” value is on record as more than 99 % remaining after 50 min.
Turning to `C=CC(=O)Nc1cc(-c2c(-c3ccc(N4CCN(C)CC4)cc3)[nH]c3nccc(Cl)c23)ccc1C` [Example 2, N-(5-(4-chloro-2-(4-(4-methylpiperazin-1-yl)phenyl)-1H-pyrrolo[2,3-b]pyridin-3-yl)-2-methylphenyl)acrylamide], the GI50 in data set [1] and in [2] was not above 100 nM each time. For the same compound, the IC50 with A431 is 100 to 500 nM; in the data set on H1781 it was 100 to 500 nM; in the data set with H1975, not above 100 nM; against HER2 INS YVMA, not above 100 nM; at EGFR T790ML858R, not above 100 nM; at EGFR wt it was not above 100 nM. The “Stability in presence of mouse liver microsomes without cofactor NADPH [% remaining after 50 min]” value in [3] is listed as more than 99 % remaining after 50 min.
In the case of `C=CC(=O)Nc1cc(-c2c(-c3cccc(C(=O)NC4CCN(Cc5ccccc5)CC4)c3)[nH]c3nccc(Cl)c23)ccc1C` [Example 48, 3-(3-(3-acrylamido-4-methylphenyl)-4-chloro-1H-pyrrolo[2,3-b]pyridin-2-yl)-N-(1-benzylpiperidin-4-yl)benzamide], the GI50 in data set [1] and in data set [2] was 100 to 500 nM in each case. The IC50 in the data set on A431 was 100 to 500 nM; in the data set with H1781, 100 to 500 nM; with H1975 it was not above 100 nM; against HER2 INS YVMA it was not above 100 nM; against EGFR T790ML858R, not above 100 nM; on EGFR wt, not above 100 nM.
